ChEMBL document CHEMBL4421737, “D-3-phosphoglycerate dehydrogenase allosteric inhibitor and use thereof” (2018)
Activity calls are given as the source filed them. The rule behind the calls is not given here.

Assays:
[1] = system: HCC70; experiment: Cytotoxicity against human HCC70 cells assessed as reduction in cell viability incubated for 72 hrs by MTT assay; format: functional, cell-based; details: HCC70, 72 h
[2] = system: MDA-MB-468; experiment: Cytotoxicity against human MDA-MB-468 cells assessed as reduction in cell viability incubated for 72 hrs by MTT assay; format: functional, cell-based; details: MDA-MB-468, 72 h
[3] = system: MCF-10A; experiment: Cytotoxicity against human MCF10A cells assessed as reduction in cell viability incubated for 72 hrs by MTT assay; format: cell-based
[4] = system: MDA-MB-468; experiment: Antitumor activity against human MDA-MB-468 cells xenografted in NOD.CB17-Prkdc scid/J mouse assessed as inhibition of tumor growth at 20 mg/kg/day measured every two days up to 70 days post treatment initiation; format: functional, organism-based
[5] = system: MDA-MB-231; experiment: Cytotoxicity against human MDA-MB-231 cells assessed as reduction in cell viability incubated for 72 hrs by MTT assay; format: functional, cell-based; details: MDA-MB-231, 72 h
[6] = system: ZR-75-1; experiment: Cytotoxicity against human ZR-75-1 cells assessed as reduction in cell viability incubated for 72 hrs by MTT assay; format: functional, cell-based; details: ZR-75-1, 72 h
[7] = system: DLD-1; experiment: Cytotoxicity against human DLD1 cells assessed as reduction in cell viability incubated for 72 hrs by MTT assay; format: functional, cell-based; details: DLD-1, 72 h
[8] = system: MDA-MB-468; experiment: Induction of cell cycle arrest in human MDA-MB-468 cells assessed as accumulation at G0/G1 phase at 2.5 to 40 uM incubated for 24 hrs by propidium iodide staining based flow cytometry; format: functional
[9] = system: MDA-MB-468; experiment: Antitumor activity against human MDA-MB-468 cells xenografted in NOD.CB17-Prkdc scid/J mouse assessed as inhibition of tumor growth at 20 mg/kg/day co-treated with 2.5mg/kg/4day doxorubicin measured every two days up to 11 days post treatment initiation relative to doxorubicin alone; format: functional
[10] = system: MDA-MB-468; experiment: Antitumor activity against human MDA-MB-468 cells xenografted in NOD.CB17-Prkdc scid/J mouse assessed as inhibition of tumor growth at 20 mg/kg/day co-treated with 2.5mg/kg/4day doxorubicin measured every two days up to 11 days post treatment initiation relative to compound alone; format: functional
[11] = system: MDA-MB-468; experiment: Induction of cell cycle arrest in human MDA-MB-468 cells assessed as accumulation at G0/G1 phase at 10 to 160 uM incubated for 24 hrs by propidium iodide staining based flow cytometry; format: functional
[12] = system: MCF7; experiment: Cytotoxicity against human MCF7 cells assessed as reduction in cell viability incubated for 72 hrs by MTT assay; format: functional, cell-based; details: MCF7, 72 h

Row | SMILES | EC50 [1] | EC50 [2] | EC50 [3] | TGI [4] | EC50 [5] | EC50 [6] | EC50 [7] | Activity [8] | TGI [9] | TGI [10] | Activity [11] | EC50 [12]
1 | O=C(N/N=C/c1cc([N+](=O)[O-])ccc1O)c1ccc(O)cc1O | 10.8 µM | 7.7 µM | 45.8 µM | Active | 27.7 µM | 83.4 µM | 18.3 µM | Active |  |  |  | 
2 | CCNC(=S)N/N=C/c1ccc(-c2ccc(C(=O)O)c(Cl)c2)o1 | 10 µM | 6.9 µM | 64.7 µM | Active | > 200 µM | 125 µM | 167 µM |  | 41% | 41% | Active | > 200 µM
